Reference: patent US10473647B1, “Peptides for use in treatment and diagnosis of type 1 diabetes” (ImmusanT, Inc., priority 2014, dated 2019)

Legend:
Type in all cases: cell-based, human
[1] = system: whole blood from subjects with T1D and Celiac disease; assay: Whole blood cytokine release assay, IFN-γ (MAGPIX), Example 1; settings: individual 17mer 20 μg/mL, blood 6 days after commencing oral gluten challenge
[2] = system: whole blood from subjects with T1D and Celiac disease; assay: Whole blood cytokine release assay, IP-10 (MAGPIX), Example 1; settings: individual 17mer 20 μg/mL, blood 6 days after commencing oral gluten challenge; for subjects with elevated whole blood IP-10 release (2-fold greater than medium alone): four subjects
[3] = system: whole blood from subjects with T1D and Celiac disease; assay: Whole blood cytokine release assay, IL-2 (MAGPIX), Example 1; settings: individual 17mer 20 μg/mL, blood 6 days after commencing oral gluten challenge

Sequence | IFN-g fold-change ([1]; Subject 1) | IFN-g fold-change (preproinsulin peptides) ([1]; Subject 1) [fold] | IFN-g fold-change ([1]; Subject 2) | IFN-g fold-change (preproinsulin peptides) ([1]; Subject 2) [fold] | IFN-g fold-change ([1]; Subject 6) | IFN-g fold-change (preproinsulin peptides) ([1]; Subject 6) [fold] | IFN-g fold-change ([1]; Subject 7) | IFN-g fold-change (preproinsulin peptides) ([1]; Subject 7) [fold] | IP-10 fold-change ([2]; Subject 1) | IP-10 fold-change (preproinsulin peptides) ([2]; Subject 1) [fold] | IP-10 fold-change ([2]; Subject 2) | IP-10 fold-change (preproinsulin peptides) ([2]; Subject 2) [fold] | IP-10 fold-change ([2]; Subject 6) | IP-10 fold-change (preproinsulin peptides) ([2]; Subject 6) [fold] | IP-10 fold-change ([2]; Subject 7) | IP-10 fold-change (preproinsulin peptides) ([2]; Subject 7) [fold] | IL-2 fold-change ([3]; Subject 1) | IL-2 fold-change (preproinsulin peptides) ([3]; Subject 1) [fold] | IL-2 fold-change ([3]; Subject 2) | IL-2 fold-change (preproinsulin peptides) ([3]; Subject 2) [fold] | further results
NQHLCGSHLVEALYLVC [SEQ ID NO: 51] | 0.91 | 0.91 | 0.82 | 0.82 | 1.66 | 1.66 | 0.53 | 0.53 | 0.95 | 0.95 | 1.45 | 1.45 | 75.09 | 75.09 | 1.57 | 1.57 | 1.00 | 1.00 | 1.00 | 1.00 | subjects with elevated whole blood IP-10 release (2-fold greater than medium alone) [2]: pronounced in one subject; IL-2 fold-change ([3]; Subject 6): 1.00; IL-2 fold-change (preproinsulin peptides) ([3]; Subject 6): 1.00 fold; IL-2 fold-change ([3]; Subject 7): 0.21; IL-2 fold-change (preproinsulin peptides) ([3]; Subject 7): 0.21 fold
EAEVGQVELGGGPGAGS [SEQ ID NO: 56] | 1.07 | 1.07 | 0.82 | 0.82 | 0.97 | 0.97 | 1.55 | 1.55 | 0.96 | 0.96 | 1.05 | 1.05 | 0.91 | 0.91 | 1.43 | 1.43 | 1.00 | 1.00 | 1.00 | 1.00 | IL-2 fold-change ([3]; Subject 6): 1.00; IL-2 fold-change (preproinsulin peptides) ([3]; Subject 6): 1.00 fold; IL-2 fold-change ([3]; Subject 7): 4.83; IL-2 fold-change (preproinsulin peptides) ([3]; Subject 7): 4.83 fold
PLLALLALWGPDPAAAF [SEQ ID NO: 45] | 0.78 | 0.78 | 1.53 | 1.53 | 1.11 | 1.11 | 1.55 | 1.55 | 3.27 | 3.27 | 6.60 | 6.60 | 31.61 | 31.61 | 2.73 | 2.73 | 1.00 | 1.00 | 1.00 | 1.00 | subjects with elevated whole blood IP-10 release (2-fold greater than medium alone) [2]: all four subjects; IL-2 fold-change ([3]; Subject 6): 1.64; IL-2 fold-change (preproinsulin peptides) ([3]; Subject 6): 1.64 fold; IL-2 fold-change ([3]; Subject 7): 3.77; IL-2 fold-change (preproinsulin peptides) ([3]; Subject 7): 3.77 fold
